Substitutions are numbered along the chain they refer to. Active and inactive are the calls of the source. The calls are words filed in the database; no cut-off is given here.
Legend:
[1] = test system: T1, General amino-acid permease GAP1 (Saccharomyces cerevisiae), P19145 [A385C]; experiment: Induction of yeast Gap1 A385C mutant-mediated trehalose activation at 10 mM
T1 sequence (whole entry): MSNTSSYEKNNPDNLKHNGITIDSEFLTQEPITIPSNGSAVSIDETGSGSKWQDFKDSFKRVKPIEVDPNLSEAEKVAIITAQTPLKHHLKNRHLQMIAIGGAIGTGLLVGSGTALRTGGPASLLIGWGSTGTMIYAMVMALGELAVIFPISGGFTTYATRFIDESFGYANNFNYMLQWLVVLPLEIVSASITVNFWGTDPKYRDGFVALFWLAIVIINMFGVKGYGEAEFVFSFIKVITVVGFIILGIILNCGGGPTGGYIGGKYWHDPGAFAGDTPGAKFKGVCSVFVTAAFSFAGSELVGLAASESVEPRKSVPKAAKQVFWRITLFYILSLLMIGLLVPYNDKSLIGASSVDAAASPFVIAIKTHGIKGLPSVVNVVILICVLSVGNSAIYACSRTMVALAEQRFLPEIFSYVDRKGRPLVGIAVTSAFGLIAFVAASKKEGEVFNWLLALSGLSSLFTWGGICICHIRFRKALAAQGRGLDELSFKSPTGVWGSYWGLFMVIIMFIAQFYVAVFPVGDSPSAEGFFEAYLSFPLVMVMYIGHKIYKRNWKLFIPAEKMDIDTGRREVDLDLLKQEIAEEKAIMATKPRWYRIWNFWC

[2] = test system: T2, General amino-acid permease GAP1 (Saccharomyces cerevisiae), P19145 [L383C]; experiment: Induction of yeast Gap1 L383C mutant-mediated trehalose activation at 10 mM
T2 sequence (whole entry): T1 sequence (whole entry) with L383C, C385A

[3] = test system: T3, General amino-acid permease GAP1 (Saccharomyces cerevisiae), P19145 [N391C]; experiment: Induction of yeast Gap1 N391C mutant-mediated trehalose activation at 10 mM
T3 sequence (whole entry): T1 sequence (whole entry) with C385A, N391C

[4] = test system: T4, General amino-acid permease GAP1 (Saccharomyces cerevisiae), P19145 [M401C]; experiment: Induction of yeast Gap1 M401C mutant-mediated trehalose activation at 2 mM in presence of 10 mM MTSEA treated before compound addition
T4 sequence (whole entry): T1 sequence (whole entry) with C385A, M401C

- Activity [1]: inactive
- Activity [2]: inactive
- Activity [3]: inactive
- inhibition [4]: Active
Compound: NC(=O)NCCC[C@H](N)C(=O)O

Reference: ChEMBL document CHEMBL1221220, “Transport and signaling via the amino acid binding site of the yeast Gap1 amino acid transceptor” (Nat Chem Biol, 2009)
